# In patent US11534425B2, “Compounds for the treatment of acute organ injury” (priority 2018, dated 2022):
# Read-outs that look alike come from different tables or passages of the source.
# Legend:
# [1] = system: Primary rat cortical neurons; assay: Staurosporine (STS) injury assay, cell viability by CELLTITER-BLUE; format: cell-based
# Description: Primary rat cortical neurons were cultured on poly-D-lysine coated 96-well plates at a density of 1×10^5/well in Neurobasal medium+B27 supplement. 1/2 media swaps were given every 3 d. ARA-c was added to the medium on day in vitro (DIV) 3 to inhibit glial proliferation. On DIV9, maintenance media (2/3) was collected from plates and mixed with fresh media (1/3) to obtain ˜67% conditioned medium (CM). Staurosporine (STS) and drugs were prepared in 100% DMSO and diluted in CM. Uninjured controls received an equal concentration of DMSO. Primary cortical neurons were incubated with +STS+drugs for in 100 μL/well CM. Cell viability was determined 24 h later (DIV10) by CELLTITER-BLUE® (n=10 replicates/group). […] Data were analyzed by 1-Way-ANOVA and Newman-Keuls Multiple Comparison Test. Graphs show Mean+SEM. Data are significant at p<0.05. Conclusion: NSC74429 is a potent a neuroprotectant as determined by the STS cell death assay.
# pAKT473 [2] = conditions: primary rat cortical neurons, Jackson et al., 2013; cited from earlier work
# [3] = system: Primary rat cortical neurons; assay: Hydrogen peroxide (H2O2)-oxidative stress assay, cell viability by CELLTITER-BLUE; format: cell-based; conditions: 40 μM H2O2 35 min, viability 24 h later
# Description: (§1) Primary rat cortical neurons were cultured on poly-D-lysine coated 96-well plates at a density of 1×10^5/well in Neurobasal medium+B27 supplement. 1/2 media swaps were given every 3 d. ARA-c was added to the maintenance medium on day in vitro (DIV) 3 to inhibit glial proliferation. (A) On DIV9, maintenance media (2/3) was collected from plates and mixed with fresh media (1/3) to obtain 67% conditioned medium (CM). Cells were washed once with balanced salt solution (BSS supplemented with 5 mM glucose; 200 μL/well). BSS was replaced with BSS containing 10 μM glutamic acid, and incubated on cells 5 min to induce excitotoxicity. Glutamic acid/BSS was replaced with 100 μL/well CM, containing DMSO (control) or drugs, and returned to the incubator for 24 h (n=10 replicates/group). (B) DIV9 cells were washed once with BSS, injured 35 min with 40 μM H2O2 dissolved in BSS, and replaced with 100 μL/well CM containing DMSO (control) or drugs. Cell viability was determined 24 h later (DIV10) by addition of 20 μL/well CELLTITER-BLUE® (n=10 replicates/group). Data were analyzed by 1-Way-ANOVA and Newman-Keuls Multiple Comparison Test. Graphs show Mean+SEM. Data are significant at p<0.05. Excitotoxicity is a major cause of neuronal death across the spectrum of CNS injury.
# Sprague Dawley rats = assay: Adult rat asphyxia cardiac arrest (ACA), hippocampal CA1 cell survival counts; format: in vivo; conditions: 1 mg/kg or 3 mg/kg, given 5 min after ROSC
# Description: We tested the therapeutic efficacy of NSC74429 in a model of brain injury (ACA) in which the blood brain barrier (BBB) remains intact. Male ˜300 g Sprague Dawley rats were anesthetized on isoflurane (4% induction/2% maintenance on 50% O2/50% N2) and mechanically ventilated. The left femoral artery and vein were accessed and cannulated with heparinized-saline filled PE-50 tubing. EKG, mean arterial pressure (MAP), rectal temperature, and pectoralis temperature were continuously monitored. Body temperature was maintained to 37° C. Arterial blood gas measurements were analyzed and ventilator settings adjusted as needed to achieve normal PaO2 and PaCO2. 2 mg/kg cisatracurium was administered 5 min prior to CA to stop spontaneous breathing (i.e. neuromuscular blockage). The ventilator was disconnected. Mean arterial pressure (MAP) decreased over 2-3 min until reaching target no-flow (<10 mmHG). […] Data were analyzed by 1-Way-ANOVA and Newman-Keuls Multiple Comparison Test. […] The technician that administered drug injections, and the technician that analyzed histology, were blinded to treatment group. A single value in the vehicle-injury group (indicated by a * in the table above) was a statistical outlier as determined by the Dixon's test and was removed from statistical analysis. […]
# [4] = system: Primary rat cortical neurons; assay: Glutamate-excitotoxicity assay, cell viability by CELLTITER-BLUE; format: cell-based; conditions: 10 μM glutamic acid 5 min, viability 24 h later
# Description: as §1
# PHLPP2 = conditions: reported by Sierecki and colleagues; read-out: IC50 to block PHLPP2; cited from earlier work
# C57BL/6 mice = assay: Adult mouse controlled cortical impact plus hemorrhagic shock (CCI+HS), CA1/CA3 cell counts; format: in vivo
# Description: Traumatic brain injury (TBI) compromises the BBB, making it easier for drugs to reach injured tissue, and TBI is also worsened by secondary injuries such as hypotension due to profound blood loss (HS). Adult male ˜28 g C57BL/6 mice were anesthetized with isoflurane via a nose cone (4% induction/2% maintenance on 70% N2O/30% O2), given preparatory surgery, and sequentially injured by (1) a CCI-TBI and (2) HS, as reported by our group (Jackson et al., 2015). In brief, mice were given a moderate CCI above the left parietal cortex (impact tip velocity 5 m/s and cortical depth 1.0 mm). 5 min later, HS was initiated by withdrawing blood until mean arterial pressure (MAP) decreased from ˜90 mmHG (normal) to ˜25-27 mmHG (hypotensive). HS was maintained for 35 min. Mice were then volume resuscitated using lactated ringer's (LR) solution for 90 min to mimic pre-hospital care (targeted MAP of ˜70 mmHG). Finally, shed blood was returned over 15 min to mimic definitive hospital care and MAP returned to normal. (A-D) In a first study we measured the acute neuroprotective effects of NSC74429 on hippocampal injury 48 h after CCI+HS. Mice were given an intravenous bolus injection of vehicle (5% DMSO in D5W) or NSC74429 (1 mg/kg or 3 mg/kg) immediately after the hospital phase (i.e. […] after the initial CCI-injury). A second intraperitoneal injection was administered 24 h later, and brains collected for CA1/CA3 cell counts 48 h post-injury. One animal died in the vehicle-injury group and four animals died in the 3 mg/kg NSC74429 group prior to tissue collection. (A and B) Scatter plots show CA1/CA3 cell counts in surviving animals. 1 mg/kg NSC74429 was neuroprotective. Hippocampal survival bifurcated in the 3 mg/kg high-dose group; some animals had improved CA1/CA3 survival vs. vehicle-injury whereas others were clearly made worse. Given that mortality was also higher with 3 mg/kg NSC74429 (4 vs. 1), we eliminated the high-dose group from further statistical analysis. (C and D) Statistical analysis of CA1/CA3 cell counts. […] (E and F) A second study was done to test if NSC74429 neuroprotection is sustained chronically by 7 d post-injury. Only the low dose (1 mg/kg) was tested. Mice were injured as described above, given intravenous injection of vehicle or 1 mg/kg drug immediately following the hospital phase of HS, supplemental injections administered intraperitoneally at 24 h, 48 h, and 72 h post-injury, and brains collected for histology 7 d post-injury. […] Data were analyzed by 1-Way-ANOVA and Newman-Keuls Multiple Comparison Test. Graphs show Mean+SEM. Data are significant at p<0.05. Injured rats were randomized to treatment group, and drugs provided to a technician in de-identified coded vials. The technician that administered drug injections, and the technician that analyzed histology, were blinded to treatment group. Conclusion: NSC74429 is neuroprotective in the acute and chronic phase after injury in a severe trauma model.
# pAKT473 [5] = assay: pAKT473 levels in vivo, injured hippocampus after ACA; conditions: rat ACA, 1 or 3 mg/kg, iv 5 min after ROSC and ip 24 h post-injury, tissue 1 h after final injection
# Description: A separate cohort of rats was used to generate hippocampal tissue homogenates. Rats were given ACA and subsequently treated with (a) vehicle, (b) 1 mg/kg NSC74429, or (c) 3 mg/kg NSC74429. Treatments were administered by iv bolus injection 5 min after ROSC, and a 2nd ip bolus injection 24 h post-injury. Shams were administered vehicle injections and preparatory surgery but were not injured. Rats were euthanized 1 h following the final drug injection and brain tissue collected for protein analysis. […] Data were analyzed by 1-Way-ANOVA and Newman-Keuls Multiple Comparison Test. Injured rats were randomized to treatment group, and drugs provided to a technician in de-identified coded vials. The technician that administered drug injections was blinded to treatment group. Graphs show Mean+SEM. Data are significant at p<0.05.
# pAKT473 [6] = assay: pAKT473 levels in cultured primary rat cortical neurons (Western blots); format: cell-based; conditions: 25 μM or 50 μM, 35 min
# Description: We tested if NSC74429 also increases pAKT473 levels using our published protocol. In brief, uninjured primary rat cortical neurons were maintained in Neurobasal+B27. Prior to treatments, neurons were given a supplement starvation period by exchanging maintenance media with basic Neurobasal (i.e. minus B27), and returned to a 37° C. incubator for 2 h. Neurons were subsequently treated 35 min with DMSO, 25 μM NSC74429, or 50 μM NSC74429 (diluted in basic Neurobasal). Western blots confirm that PHLPP1 and PHLPP2 isoforms are detected in rat cortical neurons. […] PHLPP inhibitors increase pAKT473 levels but NSC74429 had the opposite effect. Moreover, inhibition of pAKT473 is expected to promote cell death yet NSC74429 (AKT inhibitor) was neuroprotective as shown in FIG. 1 and FIG. 2. […] Data were analyzed by 1-Way-ANOVA and Newman-Keuls Multiple Comparison Test. Graphs show Mean+SEM. Data are significant at p<0.05. Conclusion: Together PHLPP1 and PHLPP2 regulate the dephosphorylation of pAKT473 on AKT1, AKT2, and AKT3 isoforms.
# [7] = 1 mg/kg iv then ip at 24 h, 48 h post-injury
compound,measurement,setting,value
COc1cc(NCCC2CCCCN2)c2ncccc2c1 (stereo not shown) [NSC13378],"neuroprotection, cell viability after STS injury",[1]; viability 24 h later (DIV10),failed to protect
CN(C)CCOC(=O)c1ccc(N)cc1 [NSC25247],"neuroprotection, cell viability after STS injury","[1]; 50 μM, viability 24 h later",mildly neuroprotective
Cc1cc(N=Nc2ccc(N=Nc3ccc(O)c(C(=O)[O-])c3)cc2)c(N)cc1N.[Na+] [NSC45586],pAKT473 levels,pAKT473 [2],dose-dependently increase pAKT473 levels
S=C(Nc1ccc2cn[nH]c2c1)Nc1ccc2cn[nH]c2c1 [NSC74429],"neuroprotection, cell viability after STS injury","[1]; 25-50 μM, viability 24 h later",potently neuroprotective
same,cell death induced by oxidative stress,[3],decreases cell death
same,hippocampal CA1 cell survival (neuroprotection),Sprague Dawley rats,neuroprotective
same,glutamate-induced neuronal death,[4]; 25 μM,insufficient to decrease glutamate-induced neuronal death
same,glutamate-induced neuronal death (excitotoxic injury),[4]; 50 μM,reduced excitotoxic injury
same,IC50,PHLPP2,5 µM
same,CA1 survival,"C57BL/6 mice; 1 mg/kg iv then ip at 24, 48, 72 h, 7 d post-injury",equivalent in both injured groups
same,"CA3 tissue sparing, above vehicle injury","C57BL/6 mice; 1 mg/kg iv then ip at 24, 48, 72 h, 7 d post-injury, not statistically significant",~17.5%
same,CA1 cell survival,C57BL/6 mice; [7],significantly increased
same,CA3 cell survival,C57BL/6 mice; [7],significantly increased
same,hippocampal CA1/CA3 survival,"C57BL/6 mice; 3 mg/kg high-dose group, 48 h post-injury",bifurcated
same,mortality (animals died prior to tissue collection),"C57BL/6 mice; 3 mg/kg, vs. 1 in vehicle-injury group",4 animals
same,pAKT473 levels in the injured hippocampus,pAKT473 [5],did not increase pAKT473 levels
same,pmTOR2448 (other phosphorylated proteins),pAKT473 [6]; uninjured neurons,did not affect
same,pAKT473 levels,pAKT473 [6]; uninjured neurons after 2 h supplement starvation,dose-dependently decreased pAKT473 levels
Nc1c(S(=O)(=O)O)cc(Nc2cccc(S(N)(=O)=O)c2)c2c1C(=O)c1ccccc1C2=O [NSC117079],pAKT473 levels,pAKT473 [2],dose-dependently increase pAKT473 levels
